System: 292921-168-R-J2-PDC KRAS tumor spheroid viability
Assay: Anticancer human tumor 292921-168-R-J2-PDC patient-derived pancreatic carcinoma cell line growth inhibition [KRAS2]
Details: spheroids with HUVEC and MSC; for viability, T/C: stronger effect = lower value
Method in brief: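 Combination screen of spheroid viability in tumor-cell co-cultures with endothelial (HUVEC) and mesenchymal stem cell stroma. Each agent was tested in half-log dilutions, topping at clinical Cmax or at 10 microM without a known Cmax.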

[1] = curve of first compound, second compound 0.1 µM
[2] = curve of first compound, second compound 0.316 µM
[3] = curve of first compound, second compound 1 µM
[4] = curve of first compound, second compound 3.16 µM
[5] = curve of first compound, second compound 10 µM
[6] = second compound 0.1 µM, first compound 0.01 µM
[7] = second compound 0.1 µM, first compound 0.0316 µM
[8] = second compound 0.1 µM, first compound 0.1 µM
[9] = second compound 0.1 µM, first compound 0.316 µM
[10] = second compound 0.1 µM, first compound 1 µM
[11] = second compound 0.1 µM, first compound 3.16 µM
[12] = second compound 0.316 µM, first compound 0.01 µM
[13] = second compound 0.316 µM, first compound 0.0316 µM
[14] = second compound 0.316 µM, first compound 0.1 µM
[15] = second compound 0.316 µM, first compound 0.316 µM
[16] = second compound 0.316 µM, first compound 1 µM
[17] = second compound 0.316 µM, first compound 3.16 µM
[18] = second compound 1 µM, first compound 0.01 µM
[19] = second compound 1 µM, first compound 0.0316 µM
[20] = second compound 1 µM, first compound 0.1 µM
[21] = second compound 1 µM, first compound 0.316 µM
[22] = second compound 1 µM, first compound 1 µM
[23] = second compound 1 µM, first compound 3.16 µM
[24] = second compound 3.16 µM, first compound 0.01 µM
[25] = second compound 3.16 µM, first compound 0.0316 µM
[26] = second compound 3.16 µM, first compound 0.1 µM
[27] = second compound 3.16 µM, first compound 0.316 µM
[28] = second compound 3.16 µM, first compound 1 µM
[29] = second compound 3.16 µM, first compound 3.16 µM
[30] = second compound 10 µM, first compound 0.01 µM
[31] = second compound 10 µM, first compound 0.0316 µM
[32] = second compound 10 µM, first compound 0.1 µM
[33] = second compound 10 µM, first compound 0.316 µM
[34] = second compound 10 µM, first compound 1 µM
[35] = second compound 10 µM, first compound 3.16 µM
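Also: drug exposure lasted seven days after spheroids formed for three days.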
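For viability, T/C in this document: percent of DMSO vehicle control viability which is 100%.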

Compound | IC50 [1] [nM] | IC50 [2] [nM] | IC50 [3] [nM] | IC50 [4] [nM] | IC50 [5] [nM] | viability, T/C [6] [%] | viability, T/C [7] [%] | viability, T/C [8] [%] | viability, T/C [9] [%] | viability, T/C [10] [%] | viability, T/C [11] [%] | viability, T/C [12] [%] | viability, T/C [13] [%] | viability, T/C [14] [%] | viability, T/C [15] [%] | viability, T/C [16] [%] | viability, T/C [17] [%] | viability, T/C [18] [%] | viability, T/C [19] [%] | viability, T/C [20] [%] | other results
CC(=O)OC12COC1CC(O)C1(C)C(=O)C(O)C3=C(C)C(OC(=O)C(O)C(NC(=O)OC(C)(C)C)c4ccccc4)CC(O)(C(OC(=O)c4ccccc4)C21)C3(C)C (configuration not stated) + C=CC(=O)N1CCN(c2nc(=O)n(-c3c(C)ccnc3C(C)C)c3nc(-c4c(O)cccc4F)c(F)cc23)C(C)C1 | < 10 | < 10 | < 10 | < 10 | < 10 | 14.6 | 15.4 | 14.2 | 12.3 | 14.5 | 17.3 | 12.9 | 17.1 | 13 | 13.1 | 13.7 | 18.3 | 17.1 | 17.5 | 14.9 | viability, T/C [21]: 12.9%; viability, T/C [22]: 14.4%; viability, T/C [23]: 19.1%; viability, T/C [24]: 18.1%; viability, T/C [25]: 18.2%; viability, T/C [26]: 16.9%; viability, T/C [27]: 15.7%; viability, T/C [28]: 16.1%; viability, T/C [29]: 17.9%; viability, T/C [30]: 20.5%; viability, T/C [31]: 18.4%; viability, T/C [32]: 16.6%; viability, T/C [33]: 15.3%; viability, T/C [34]: 15.7%; viability, T/C [35]: 17.2%
CC1COCCN1c1cc(-c2ccnn2C)c2ccnc(-c3ccn[nH]3)c2n1 (configuration not stated) + CC1OCC2(CCN(c3cnc(Sc4ccnc(N)c4Cl)c(N)n3)CC2)C1N | < 10 | < 10 | < 10 | < 10 | < 10 | 44.6 | 23.8 | 15.9 | 15 | 15 | 16.2 | 38.9 | 20.6 | 14.6 | 13 | 13.3 | 14.5 | 33.5 | 21.9 | 13.4 | viability, T/C [21]: 12.3%; viability, T/C [22]: 12.3%; viability, T/C [23]: 12.3%; viability, T/C [24]: 28.2%; viability, T/C [25]: 17.8%; viability, T/C [26]: 13.4%; viability, T/C [27]: 11%; viability, T/C [28]: 10.2%; viability, T/C [29]: 10.9%; viability, T/C [30]: 25.3%; viability, T/C [31]: 18.2%; viability, T/C [32]: 13.1%; viability, T/C [33]: 10.2%; viability, T/C [34]: 10.7%; viability, T/C [35]: 9.89%
CN(C)C/C=C/C(=O)Nc1cc2c(Nc3ccc(F)c(Cl)c3)ncnc2cc1O[C@H]1CCOC1 | – | – | – | – | – | – | – | – | – | – | – | – | – | – | – | – | – | – | – | – | viability, T/C (compound 0.000316 µM): 101% [middle of 5 runs]; viability, T/C (compound 0.001 µM): 101% [middle of 5 runs]; viability, T/C (compound 0.00316 µM): 85.6% [middle of 5 runs]; viability, T/C (compound 0.01 µM): 82.7% [middle of 5 runs]; viability, T/C (compound 0.0316 µM): 75.9% [middle of 5 runs]; viability, T/C (compound 0.1 µM): 70.9% [middle of 5 runs]; IC50 (curve of compound): > 100 nM

Reference: PubChem BioAssay AID1963870 (Molecular Pharmacology Branch, DTP, NCI, 2024)
